Patent publication US20250223306A1, “TEAD INHIBITORS AND METHODS OF USE” (Sporos BioDiscovery, Inc., priority 2022, published 2025)
pIC50: −log10 of the molar value.

Assays:
NCI-H226 cells [1] = assay: Proliferation and cell viability, CellTiter-Glo 2.0 (CTG) assay; assay type: cell-based; settings: 144 hrs
Experimental: (§1) Cell proliferation of a TEAD dependent NF2-null mesothelioma cell line, NCI-H226, and a TEAD-non-dependent mesothelioma cell line, NCI-H28 was assayed using two different protocols: • a) CellTiter-Glo 2.0 (Promega #G9243). The effect of the TEAD inhibitors disclosed herein on cell proliferation was determined in TEAD1-genetically dependent cell line NCI-H226 (responder cell line) and TEAD-independent cell lines (NCI-H23, HEK293T), as non-responder, negative control. Cells were seeded in 96-well plates (Thermo Scientific #167008) in growth media (RPMI-1640, Gibco #61870-010) for NCI-H226 and NCI-H23 or DMEM (Gibco #31966-021, HEK293T) with 10% Heat Inactivated Fetal Bovine Serum (Gibco 10500-064) at 800 (NCI-H226 and HEK-293T) or 2000 (NCI-H23) cells per well at 37° C., 5% CO2, humidified incubator; 24 hours later, fresh growth media containing test compound or DMSO vehicle was added and incubated with the cells for 144 hrs. TEAD inhibitor stocks were made at a 1000× fold excess in DMSO, and a dose response test compound dose range of 10,000 to 0.1 nM was used. Each treatment was carried out in triplicate. After 144 hrs of treatment, relative cell viability numbers were determined using the CellTiter-Glo 2.0 assay following the manufacturer's instructions. Test plates and CellTiter-Glo 2.0 reagent were allowed to equilibrate to room temperature. CellTiter-Glo 2.0 reagent was added at 1:1 reagent to media ratio to the 96-well cell plates, plates were placed on a plate shaker for 2 minutes and then incubated at room temperature for a further 10 minutes to allow complete cell lysis to occur. The mix was then transferred to white, 96-well luminometer assay plates (Greiner Bio One #655075). Luminescence was quantified using a CLARIOStar Plus multi-mode plate reader (BMG Labtech) in luminescence detection mode with the recommended settings (ultra-Glo pre-set: emission 545-50 nm with autofocus and enhanced dynamic range on). Relative cell density was expressed as a function of inhibitor concentration, with respect to DMSO-only control wells. Data where plotted using GraphPad Prism and IC50 values for the biological effect were calculated using the EC50 non-linear fit function using a sigmoidal, 4-parameter logistic, least squares fit with no constraints. • b) Cell Titer One (Promega, #G3582). The effect of the TEAD inhibitors disclosed herein on cell proliferation was also determined using the Promega Substrate Cell Titer Aqueous One Solution Reagent. The TEAD inhibitors were evaluated for the effects on cell proliferation responder (H226) and non-responder negative control cancer cell lines (CAMA1, H28), as well as non-transformed normal human cells (HUVEC, NHDF). Dissociated cells were resuspend in media (depending on cell line, either in DMEM, RPMI, or EMEM all with 10% FBS, with gentamicin as an antibiotic). Cells were seeded at 100 μL/well at 750 cells per well in 96-well plates and allowed to settle and attach. After an incubation of 24 hrs (37° C., 5% CO2, humidified incubator), 100 μL of test compound-containing media was added. A dilution series of 2000× concentrated stock of test compounds was prepared in DMSO, for final concentrations from 0.1 to 10,000 nM. After addition of test compound-containing media, cells were incubated for 6 days at 37° C., 5% CO2, humidified incubators). To measure cell density, 20 μL of Promega Substrate Cell Titer 96 Aqueous One Solution Reagent (Promega, #G3582) to each well was added according to the manufacturer's instructions. Plates were incubated at 37° C. for usually 3-8 hrs, to reach in the control cells (without compound) an OD of 1.5 at 490 nm. The OD was measured using Vmax [Molecular Devices] spectrophotometer plate reader. Media only-wells were used as background controls and cell densities normalized to DMSO vehicle control. ECs were taken as the concentration achieving 50% of maximal growth inhibition.

NCI-H23 cells = assay: as above; assay type: cell-based; settings: 144 hrs
Experimental: as §1

NCI-H226 cells [2] = assay: Proliferation, Cell Titer One assay; assay type: cell-based; settings: 6 days
Experimental: as §1

TEAD4 = TEAD4 (Homo sapiens, UniProt Q15561); assay: TEAD thermal shift assay (TSA); assay type: binding
TEAD4, sequence (Q15561 whole entry): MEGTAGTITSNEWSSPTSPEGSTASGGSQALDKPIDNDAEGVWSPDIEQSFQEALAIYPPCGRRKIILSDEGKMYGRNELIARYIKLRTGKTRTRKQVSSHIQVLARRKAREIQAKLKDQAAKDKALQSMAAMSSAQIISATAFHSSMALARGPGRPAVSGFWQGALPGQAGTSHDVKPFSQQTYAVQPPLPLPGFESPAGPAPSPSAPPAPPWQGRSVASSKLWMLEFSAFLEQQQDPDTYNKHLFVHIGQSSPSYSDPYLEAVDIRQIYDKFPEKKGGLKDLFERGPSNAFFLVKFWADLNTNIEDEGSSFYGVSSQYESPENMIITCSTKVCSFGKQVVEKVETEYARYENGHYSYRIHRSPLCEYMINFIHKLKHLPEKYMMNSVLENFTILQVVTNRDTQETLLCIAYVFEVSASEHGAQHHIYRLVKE
Source text: (§2) Thermal shift assay (TSA) is a biophysical method to evaluate stability of proteins with change in temperature. The assay measures thermal denaturation temperature in varying conditions such as different drug concentration. For this example, fluorogenic dye was used that bind to unfolded proteins. SYPRO Orange binds non-specifically to hydrophobic surfaces, and water strongly quenches its fluorescence. When the protein unfolds, the exposed hydrophobic surfaces bind the dye, resulting in an increase in fluorescence by excluding water. Detergent micelles also bind the dye and increase background noise dramatically. Binding of small molecules to proteins leads to a stabilization against to thermal denaturation with the degree of thermal stabilization proportional to the strength of binding.
(§3) The study described in this example investigated the change in melting temperature (ΔTm) of TEAD isoforms 1˜4 when treated with TEAD inhibitors. Compound 1-1-a known strong TEAD1 and weak TEAD2 inhibitor; as well as Compound 1-4-a pan-TEAD inhibitor were used as controls.
(§4) Tris-HCL was dissolved in 5 mL of Cell culture grade water and allowed to dissolve completely. The pH was adjusted to 8 using NaOH. Additional assay buffer components were added in the order listed above. The buffer was mixed slowly.
(§5) Assay buffer was prepared according to the procedures outlined above and dispensed into test wells. Spyro orange was added to a concentration of 5× in the assay buffer, followed by test compound stock solution which was added to a concentration of 10 μM or 30 μM in the assay buffer.
(§6) The melt cycle was performed in Bio-RAD PCR instrument from 20-95° C. with ramp rate of 1° C./min.

TEAD3 = TEAD3 (Homo sapiens, UniProt Q99594); assay: TEAD thermal shift assay (TSA); assay type: binding
TEAD3, sequence (Q99594 whole entry): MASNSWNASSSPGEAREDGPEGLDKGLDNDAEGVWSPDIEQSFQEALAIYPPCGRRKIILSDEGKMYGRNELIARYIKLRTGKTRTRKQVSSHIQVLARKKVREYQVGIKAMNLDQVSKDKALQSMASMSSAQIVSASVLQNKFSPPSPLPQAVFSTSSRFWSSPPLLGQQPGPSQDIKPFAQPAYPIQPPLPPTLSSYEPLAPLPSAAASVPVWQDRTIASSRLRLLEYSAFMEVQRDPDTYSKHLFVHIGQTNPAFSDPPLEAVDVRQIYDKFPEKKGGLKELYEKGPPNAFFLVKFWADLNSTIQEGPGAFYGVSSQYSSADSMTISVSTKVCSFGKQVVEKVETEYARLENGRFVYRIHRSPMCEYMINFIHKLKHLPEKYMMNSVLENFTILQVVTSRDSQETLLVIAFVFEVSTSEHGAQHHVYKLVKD
Source text: as §2, §3, §4, §5, §6

TEAD1 = TEAD1 (Homo sapiens, UniProt P28347); assay: TEAD thermal shift assay (TSA); assay type: binding
TEAD1, sequence (P28347 whole entry): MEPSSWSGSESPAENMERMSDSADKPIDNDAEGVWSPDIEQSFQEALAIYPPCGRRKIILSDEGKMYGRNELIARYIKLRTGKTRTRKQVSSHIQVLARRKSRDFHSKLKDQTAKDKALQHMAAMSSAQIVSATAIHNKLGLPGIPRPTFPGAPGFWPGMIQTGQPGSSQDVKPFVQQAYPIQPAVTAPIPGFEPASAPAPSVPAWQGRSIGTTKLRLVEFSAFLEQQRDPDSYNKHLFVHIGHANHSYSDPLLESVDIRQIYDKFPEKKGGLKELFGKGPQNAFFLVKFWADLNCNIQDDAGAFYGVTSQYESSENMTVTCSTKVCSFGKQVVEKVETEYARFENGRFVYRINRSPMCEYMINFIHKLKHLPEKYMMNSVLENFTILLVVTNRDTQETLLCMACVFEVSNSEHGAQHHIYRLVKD
Source text: as §2, §3, §4, §5, §6

TEAD2 = TEAD2 (Homo sapiens, UniProt Q15562); assay: TEAD thermal shift assay (TSA); assay type: binding
TEAD2, sequence (Q15562 whole entry): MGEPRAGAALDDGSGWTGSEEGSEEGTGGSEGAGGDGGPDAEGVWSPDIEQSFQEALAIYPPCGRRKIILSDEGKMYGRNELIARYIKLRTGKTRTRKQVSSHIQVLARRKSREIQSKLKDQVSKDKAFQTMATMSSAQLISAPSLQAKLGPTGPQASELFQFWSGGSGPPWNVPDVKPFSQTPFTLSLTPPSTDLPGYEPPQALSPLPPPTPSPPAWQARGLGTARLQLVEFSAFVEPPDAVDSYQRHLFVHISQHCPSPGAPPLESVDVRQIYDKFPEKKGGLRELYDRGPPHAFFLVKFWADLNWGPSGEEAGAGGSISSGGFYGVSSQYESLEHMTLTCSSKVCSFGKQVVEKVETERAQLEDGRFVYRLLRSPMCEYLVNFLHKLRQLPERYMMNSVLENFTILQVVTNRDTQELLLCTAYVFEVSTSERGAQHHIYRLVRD
Source text: as §2, §3, §4, §5, §6

[3] = Homo sapiens, NCI-H226, 144 h, H226-responder cell line
[4] = Homo sapiens, NCI-H23, H23-non-responder cell line
[5] = ratio of protein to compound 1:1
[6] = ratio of protein to compound 1:3

pIC50 (NCI-H226 cells [1]; [3])	pIC50 (NCI-H226 cells [2]; Homo sapiens, NCI-H226, 144 h)	SMILES	further results
> 6.70	6.00 to 6.70	O=C(NCc1ncco1)c1cnc2c(C3=CCC(C(F)(F)F)CC3)cccc2c1 (single isomer, unassigned) [Compound 12, N-(oxazol-2-ylmethyl)-8-(4-(trifluoromethyl)cyclohex-1-en-1-yl)quinoline-3-carboxamide]	pIC50 (NCI-H23 cells; [4]): < 6.00
		O=C(NCc1ncco1)c1cnc2c(C3=CCC(C(F)(F)F)CC3)cccc2c1 (single isomer, unassigned) [Compound 13, N-(oxazol-2-ylmethyl)-8-(4-(trifluoromethyl)cyclohex-1-en-1-yl)quinoline-3-carboxamide]	pIC50 (NCI-H226 cells [1]; H226-responder cell line): > 6.70; pIC50 (NCI-H23 cells; H23-non-responder cell line): < 6.00; pIC50 (NCI-H226 cells [2]): > 6.70
		C[C@H](NC(=O)c1ccc2c(-c3ccc(C(F)(F)F)cc3)cccc2c1)c1cccc(N)n1 [Compound 1-4, reference compound]	TEAD4 ΔTm (TEAD4; [5]): 5 °C; TEAD4 ΔTm (TEAD4; [6]): 9 °C; TEAD3 ΔTm (TEAD3; [5]): 5 °C; TEAD3 ΔTm (TEAD3; [6]): 9 °C; TEAD1 ΔTm (TEAD1; [5]): 10 °C; TEAD1 ΔTm (TEAD1; [6]): 12 °C; thermal shift / binding across TEAD isoforms, in words (TEAD1; summary of Table 14 over TEAD1-4): thermal shifts for all four TEAD isoforms; TEAD2 ΔTm (TEAD2; [5]): 5 °C; TEAD2 ΔTm (TEAD2; [6]): 7 °C
> 6.70	> 6.70	O=C(NCc1ccccn1)c1cnc2c(C3=CCC(C(F)(F)F)CC3)cccc2c1 (stereo not shown) [Compound 5, N-(pyridin-2-ylmethyl)-8-(4-(trifluoromethyl)cyclohex-1-en-1-yl)quinoline-3-carboxamide]	pIC50 (NCI-H23 cells; [4]): < 6.00
> 6.70	> 6.70	C[C@H](NC(=O)c1cnc2c(C3=CCC(F)(F)CC3)cccc2c1)c1ccccn1 [Compound 27, (S)-8-(4,4-difluorocyclohex-1-en-1-yl)-N-(1-(pyridin-2-yl)ethyl)quinoline-3-carboxamide]	
6.00 to 6.70	< 6.00	O=C(NCc1ncco1)c1cnc2c(C3=CCC(F)(F)CC3)cccc2c1 [Compound 29, 8-(4,4-difluorocyclohex-1-en-1-yl)-N-(oxazol-2-ylmethyl)quinoline-3-carboxamide]	
> 6.70	> 6.70	CC(C)NC(=O)c1cnc2c(C3=CCC(C)(C)CC3)cccc2c1 [Compound 30, 8-(4,4-dimethylcyclohex-1-en-1-yl)-N-isopropylquinoline-3-carboxamide]	
> 6.70	< 6.00	C[C@H](NC(=O)c1cnc2c(C3=CCC(C)(C)CC3)cccc2c1)c1ccccn1 [Compound 31, (S)-8-(4,4-dimethylcyclohex-1-en-1-yl)-N-(1-(pyridin-2-yl)ethyl)quinoline-3-carboxamide]	
	6.00 to 6.70	C[C@H](NC(=O)c1cnc2c(C3=CCCCC3)cccc2c1)c1ccccn1 [Compound 35, (S)-8-(cyclohex-1-en-1-yl)-N-(1-(pyridin-2-yl)ethyl)quinoline-3-carboxamide]	
	< 6.00	C[C@@H](CO)NC(=O)c1cnc2c(C3=CCCCC3)cccc2c1 [Compound 36, (S)-8-(cyclohex-1-en-1-yl)-N-(1-hydroxypropan-2-yl)quinoline-3-carboxamide]	
	< 6.00	O=C(NCc1ncco1)c1cnc2c(C3=CCCCC3)cccc2c1 [Compound 37, 8-(cyclohex-1-en-1-yl)-N-(oxazol-2-ylmethyl)quinoline-3-carboxamide]	
> 6.70	6.00 to 6.70	CNC(=O)c1cnc2c(C3=CCC(C(F)(F)F)CC3)cccc2c1 (stereo not shown) [Compound 38, N-methyl-8-(4-(trifluoromethyl)cyclohex-1-en-1-yl)quinoline-3-carboxamide]	
> 6.70	> 6.70	O=C(NCCO)c1cnc2c(C3=CCC(C(F)(F)F)CC3)cccc2c1 (stereo not shown) [Compound 39, N-(2-hydroxyethyl)-8-(4-(trifluoromethyl)cyclohex-1-en-1-yl)quinoline-3-carboxamide]	
> 6.70	6.00 to 6.70	COCCNC(=O)c1cnc2c(C3=CCC(C(F)(F)F)CC3)cccc2c1 (stereo not shown) [Compound 40, N-(2-methoxyethyl)-8-(4-(trifluoromethyl)cyclohex-1-en-1-yl)quinoline-3-carboxamide]	

SMILES	pIC50 (NCI-H226 cells [1]; [3])	pIC50 (NCI-H226 cells [2]; Homo sapiens, NCI-H226, 144 h)	further results
CC(C)NC(=O)c1cnc2c(C3=CCC(F)(F)CC3)cccc2c1 [Compound 26, 8-(4,4-difluorocyclohex-1-en-1-yl)-N-isopropylquinoline-3-carboxamide]		> 6.70	pIC50 (NCI-H226 cells [1]; Homo sapiens, NCI-H226, H226-responder cell line): > 6.70
